Source: PubChem BioAssay AID1918947 (Molecular Pharmacology Branch, DTP, NCI, 2023)

Tested on: A498 complex spheroid viability
Experiment: Anticancer human tumor A498 cell line growth inhibition;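 note: spheroids exposed to agents for seven days before readout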;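 for viability, T/C: 100% = DMSO vehicle-treated spheroids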
Conditions: for IC50: curve of first compound; for viability, T/C: stronger effect = lower value
Method in brief: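 Complex spheroids of tumor cells with HUVEC and human MSCs, exposed to iadademstat combined with other agents. Each agent tested in half-log steps from near clinical Cmax (else 10 microM top), DMSO ≤0.25%.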

[1] = second compound 0.1 µM, first compound 0.00949 µM
[2] = second compound 0.1 µM, first compound 0.03 µM
[3] = second compound 0.1 µM, first compound 0.0949 µM
[4] = second compound 0.1 µM, first compound 0.3 µM
[5] = second compound 0.1 µM, first compound 0.949 µM
[6] = second compound 0.1 µM, first compound 3 µM
[7] = second compound 0.316 µM, first compound 0.00949 µM
[8] = second compound 0.316 µM, first compound 0.03 µM
[9] = second compound 0.316 µM, first compound 0.0949 µM
[10] = second compound 0.316 µM, first compound 0.3 µM
[11] = second compound 0.316 µM, first compound 0.949 µM
[12] = second compound 0.316 µM, first compound 3 µM
[13] = second compound 1 µM, first compound 0.00949 µM
[14] = second compound 1 µM, first compound 0.03 µM
[15] = second compound 1 µM, first compound 0.0949 µM
[16] = second compound 1 µM, first compound 0.3 µM
[17] = second compound 1 µM, first compound 0.949 µM
[18] = second compound 1 µM, first compound 3 µM
[19] = second compound 3.16 µM, first compound 0.00949 µM
[20] = second compound 3.16 µM, first compound 0.03 µM
[21] = second compound 3.16 µM, first compound 0.0949 µM
[22] = second compound 3.16 µM, first compound 0.3 µM
[23] = second compound 3.16 µM, first compound 0.949 µM
[24] = second compound 3.16 µM, first compound 3 µM
[25] = second compound 10 µM, first compound 0.00949 µM
[26] = second compound 10 µM, first compound 0.03 µM
[27] = second compound 10 µM, first compound 0.0949 µM
[28] = second compound 10 µM, first compound 0.3 µM
[29] = second compound 10 µM, first compound 0.949 µM
[30] = second compound 10 µM, first compound 3 µM
[31] = second compound 0.1 µM, first compound 0.00316 µM
[32] = second compound 0.1 µM, first compound 0.01 µM
[33] = second compound 0.1 µM, first compound 0.0316 µM
[34] = second compound 0.1 µM, first compound 0.1 µM
[35] = second compound 0.316 µM, first compound 0.00316 µM
[36] = second compound 0.316 µM, first compound 0.01 µM
[37] = second compound 0.316 µM, first compound 0.0316 µM
[38] = second compound 0.316 µM, first compound 0.1 µM
[39] = second compound 1 µM, first compound 0.00316 µM
[40] = second compound 1 µM, first compound 0.01 µM
[41] = second compound 1 µM, first compound 0.0316 µM
[42] = second compound 1 µM, first compound 0.1 µM
[43] = second compound 3.16 µM, first compound 0.00316 µM
[44] = second compound 3.16 µM, first compound 0.01 µM
[45] = second compound 3.16 µM, first compound 0.0316 µM
[46] = second compound 3.16 µM, first compound 0.1 µM
[47] = second compound 10 µM, first compound 0.00316 µM
[48] = second compound 10 µM, first compound 0.01 µM
[49] = second compound 10 µM, first compound 0.0316 µM
[50] = second compound 10 µM, first compound 0.1 µM

CCN(c1cc(-c2ccc(CN3CCOCC3)cc2)cc(C(=O)NCc2c(C)cc(C)[nH]c2=O)c1C)C1CCOCC1 + NC1CCC(NC2CC2c2ccccc2)CC1
IC50 (second compound 0.1 µM): > 3000 nM
IC50 (second compound 0.316 µM): > 3000 nM
IC50 (second compound 1 µM): > 3000 nM
IC50 (second compound 3.16 µM): > 3000 nM
IC50 (second compound 10 µM): > 3000 nM
viability, T/C [1]: 85.8%
viability, T/C [2]: 90.7%
viability, T/C [3]: 92.1%
viability, T/C [4]: 91.4%
viability, T/C [5]: 94.4%
viability, T/C [6]: 92.9%
viability, T/C [7]: 93.2%
viability, T/C [8]: 101%
viability, T/C [9]: 100%
viability, T/C [10]: 98.9%
viability, T/C [11]: 92.4%
viability, T/C [12]: 92.9%
viability, T/C [13]: 91.7%
viability, T/C [14]: 97%
viability, T/C [15]: 97.3%
viability, T/C [16]: 90.1%
viability, T/C [17]: 86.8%
viability, T/C [18]: 87.2%
viability, T/C [19]: 87.3%
viability, T/C [20]: 95%
viability, T/C [21]: 90.6%
viability, T/C [22]: 89.1%
viability, T/C [23]: 85.8%
viability, T/C [24]: 78.2%
viability, T/C [25]: 80.4%
viability, T/C [26]: 87.5%
viability, T/C [27]: 88.4%
viability, T/C [28]: 82.1%
viability, T/C [29]: 82.7%
viability, T/C [30]: 72.9%

CC(C)CC(NC(=O)CNC(=O)c1cc(Cl)ccc1Cl)B1OC(=O)CC(CC(=O)O)(C(=O)O)O1 (stereo not given) + NC1CCC(NC2CC2c2ccccc2)CC1
IC50 (second compound 0.1 µM): 4.58 nM
IC50 (second compound 0.316 µM): 4.93 nM
IC50 (second compound 1 µM): 4.56 nM
IC50 (second compound 3.16 µM): 4.16 nM
IC50 (second compound 10 µM): 2.95 nM
viability, T/C (second compound 0.1 µM, first compound 0.000316 µM): 86.6%
viability, T/C (second compound 0.1 µM, first compound 0.001 µM): 91.6%
viability, T/C [31]: 64.4%
viability, T/C [32]: 18.1%
viability, T/C [33]: 4.94%
viability, T/C [34]: 3.27%
viability, T/C (second compound 0.316 µM, first compound 0.000316 µM): 94.3%
viability, T/C (second compound 0.316 µM, first compound 0.001 µM): 102%
viability, T/C [35]: 72%
viability, T/C [36]: 14.6%
viability, T/C [37]: 5.43%
viability, T/C [38]: 2.63%
viability, T/C (second compound 1 µM, first compound 0.000316 µM): 87.7%
viability, T/C (second compound 1 µM, first compound 0.001 µM): 96.5%
viability, T/C [39]: 65.5%
viability, T/C [40]: 15.4%
viability, T/C [41]: 3.18%
viability, T/C [42]: 1.44%
viability, T/C (second compound 3.16 µM, first compound 0.000316 µM): 84.3%
viability, T/C (second compound 3.16 µM, first compound 0.001 µM): 91.2%
viability, T/C [43]: 62.4%
viability, T/C [44]: 9.48%
viability, T/C [45]: 2.6%
viability, T/C [46]: 0.83%
viability, T/C (second compound 10 µM, first compound 0.000316 µM): 74.9%
viability, T/C (second compound 10 µM, first compound 0.001 µM): 83.3%
viability, T/C [47]: 47.5%
viability, T/C [48]: 7.21%
viability, T/C [49]: 1.59%
viability, T/C [50]: 0.69%

O=C(C=Cn1cnc(-c2cc(C(F)(F)F)cc(C(F)(F)F)c2)n1)NNc1cnccn1 + NC1CCC(NC2CC2c2ccccc2)CC1
IC50 (second compound 0.1 µM): 5.21 nM
IC50 (second compound 0.316 µM): 7.74 nM
IC50 (second compound 1 µM): 6.26 nM
IC50 (second compound 3.16 µM): 6.7 nM
IC50 (second compound 10 µM): 4.09 nM
viability, T/C [31]: 56.5%
viability, T/C [32]: 40.9%
viability, T/C [33]: 33.6%
viability, T/C [34]: 26.6%
viability, T/C (second compound 0.1 µM, first compound 0.316 µM): 24.9%
viability, T/C (second compound 0.1 µM, first compound 1 µM): 20.9%
viability, T/C [35]: 66.7%
viability, T/C [36]: 44.4%
viability, T/C [37]: 33.5%
viability, T/C [38]: 31.2%
viability, T/C (second compound 0.316 µM, first compound 0.316 µM): 24.1%
viability, T/C (second compound 0.316 µM, first compound 1 µM): 23.4%
viability, T/C [39]: 62.4%
viability, T/C [40]: 39.2%
viability, T/C [41]: 34.1%
viability, T/C [42]: 27.1%
viability, T/C (second compound 1 µM, first compound 0.316 µM): 21.9%
viability, T/C (second compound 1 µM, first compound 1 µM): 21.2%
viability, T/C [43]: 61.5%
viability, T/C [44]: 42.6%
viability, T/C [45]: 34.1%
viability, T/C [46]: 26.9%
viability, T/C (second compound 3.16 µM, first compound 0.316 µM): 21.5%
viability, T/C (second compound 3.16 µM, first compound 1 µM): 20.5%
viability, T/C [47]: 53.4%
viability, T/C [48]: 39.2%
viability, T/C [49]: 31.1%
viability, T/C [50]: 26.4%
viability, T/C (second compound 10 µM, first compound 0.316 µM): 22.9%
viability, T/C (second compound 10 µM, first compound 1 µM): 16.4%

O=C(C=Cc1cccc(S(=O)(=O)Nc2ccccc2)c1)NO + NC1CCC(NC2CC2c2ccccc2)CC1
IC50 (second compound 0.1 µM): 266 nM
IC50 (second compound 0.316 µM): 253 nM
IC50 (second compound 1 µM): 250 nM
IC50 (second compound 3.16 µM): 168 nM
IC50 (second compound 10 µM): 131 nM
viability, T/C [1]: 81.5%
viability, T/C [2]: 82.3%
viability, T/C [3]: 67.1%
viability, T/C [4]: 43.2%
viability, T/C [5]: 33.6%
viability, T/C [6]: 12.9%
viability, T/C [7]: 88%
viability, T/C [8]: 87.1%
viability, T/C [9]: 69.3%
viability, T/C [10]: 41.2%
viability, T/C [11]: 33.1%
viability, T/C [12]: 11.7%
viability, T/C [13]: 79.1%
viability, T/C [14]: 78%
viability, T/C [15]: 63.1%
viability, T/C [16]: 46.8%
viability, T/C [17]: 28.1%
viability, T/C [18]: 10.4%
viability, T/C [19]: 79.9%
viability, T/C [20]: 72.7%
viability, T/C [21]: 60.4%
viability, T/C [22]: 38.8%
viability, T/C [23]: 23.2%
viability, T/C [24]: 8.14%
viability, T/C [25]: 70.4%
viability, T/C [26]: 64.6%
viability, T/C [27]: 56.5%
viability, T/C [28]: 36%
viability, T/C [29]: 22.9%
viability, T/C [30]: 7.67%
